Columns and labels:
in vitro [1] = details: rat, hepatocytes
in vitro [2] = details: human
physchem = details: octanol/water
in vivo [3] = details: rat, iv
[4] = Oral bioavailability in rat; format: ADME, organism-based; details: in vivo
in vivo [5] = details: rat, iv; remark: listed apart in the source
in vivo [6] = details: rat, iv; remark: listed apart in the source
[7] = Oral bioavailability in dog; format: ADME, organism-based, Canis lupus familiaris; details: in vivo
in vivo [8] = details: dog
in vivo [9] = details: dog; remark: listed apart in the source
Rattus norvegicus = species on record: Rattus norvegicus; details: in vivo, iv

In the case of `Cc1cc(Cl)ccc1OC1CCN(C[C@H](O)CNC(=O)c2c[nH]c(=O)c3cc(S(C)(=O)=O)ccc23)CC1`, the hepatocyte CLint (in vitro [1]) is reported as 7 µL/min/1e6 cells, the microsomal CLint (in vitro [2]; liver microsomes) is reported as 14 µL/min/mg and the logD (physchem) is reported as 2.4.

With `Cc1cc(Cl)ccc1OC1CCN(C[C@H](O)CNC(=O)c2c[nH]c(=O)c3ccc(S(C)(=O)=O)cc23)CC1` the hepatocyte CLint (in vitro [1]) was 8 µL/min/1e6 cells and the microsomal CLint (in vitro [2]; liver microsomes) was 7 µL/min/mg.

Compound `O=C(NC[C@@H](O)CN1CCC(Oc2ccc(Cl)c(Cl)c2)CC1)c1c[nH]c(=O)c2cc(F)ccc12` has a Vd (in vivo [3]) of 6.4 L/kg and a logD (physchem) of 3.2.

Compound `Cc1cc(Cl)ccc1OC1CCN(C[C@H](O)CNC(=O)c2c[nH]c(=O)c3cc(F)ccc23)CC1` has a hepatocyte CLint (in vitro [1]) of less than 3 µL/min/1e6 cells and a microsomal CLint (in vitro [2]; liver microsomes) of 9 µL/min/mg.

With `O=C(NC[C@@H](O)CN1CCC(Oc2ccc(Cl)c(Cl)c2)CC1)c1c[nH]c(=O)c2ccc(F)cc12` the hepatocyte CLint (in vitro [1]) was 5 µL/min/1e6 cells, the microsomal CLint (in vitro [2]; liver microsomes) was 8 µL/min/mg and the logD (physchem) was 3.9.

Work on `O=C(NC[C@@H](O)CN1CCC(Oc2ccc(Cl)c(Cl)c2)CC1)c1c[nH]c(=O)c2cc(S(=O)(=O)NCCO)ccc12` yielded a hepatocyte CLint (in vitro [1]) of 5 µL/min/1e6 cells.

For `NS(=O)(=O)c1ccc2c(C(=O)NC[C@@H](O)CN3CCC(Oc4ccc(Cl)c(Cl)c4)CC3)c[nH]c(=O)c2c1`, the hepatocyte CLint (in vitro [1]) was less than 3 µL/min/1e6 cells and the microsomal CLint (in vitro [2]; liver microsomes) was less than 3 µL/min/mg.

For `Cc1c(Cl)ccc(OC2CCN(C[C@H](O)CNC(=O)c3c[nH]c(=O)c4ccc(S(C)(=O)=O)cc34)CC2)c1Cl`, the hepatocyte CLint (in vitro [1]) was less than 3 µL/min/1e6 cells, the microsomal CLint (in vitro [2]; liver microsomes) was less than 3 µL/min/mg and the logD (physchem) was 2.8.

Work on `CNS(=O)(=O)c1ccc2c(C(=O)NC[C@@H](O)CN3CCC(Oc4ccc(Cl)c(Cl)c4)CC3)c[nH]c(=O)c2c1` yielded a hepatocyte CLint (in vitro [1]) of less than 3 µL/min/1e6 cells, a microsomal CLint (in vitro [2]; liver microsomes) of 14 µL/min/mg and a logD (physchem) of 2.8.

In the case of `O=C(NC[C@@H](O)CN1CCC(Oc2ccc(Cl)c(Cl)c2)CC1)c1c[nH]c(=O)c2cc(S(=O)(=O)NC3CC3)ccc12`, the hepatocyte CLint (in vitro [1]) is reported as 6 µL/min/1e6 cells and the microsomal CLint (in vitro [2]; liver microsomes) is reported as 21 µL/min/mg.

In the case of `CN(C)S(=O)(=O)c1ccc2c(C(=O)NC[C@@H](O)CN3CCC(Oc4ccc(Cl)c(Cl)c4)CC3)c[nH]c(=O)c2c1`, the hepatocyte CLint (in vitro [1]) is reported as 10 µL/min/1e6 cells, the microsomal CLint (in vitro [2]; liver microsomes) is reported as 86 µL/min/mg and the logD (physchem) is reported as 3.1.

`O=C(NC[C@@H](O)CN1CCC(Oc2ccc(Cl)c(Cl)c2)CC1)c1c[nH]c(=O)c2cc(S(=O)(=O)N3CCC3)ccc12` gave a hepatocyte CLint (in vitro [1]) of 7 µL/min/1e6 cells and a microsomal CLint (in vitro [2]; microsomes) of less than 3 µL/min/mg.

`CC1(O)CN(S(=O)(=O)c2ccc3c(C(=O)NC[C@@H](O)CN4CCC(Oc5ccc(Cl)c(Cl)c5)CC4)c[nH]c(=O)c3c2)C1` showed a hepatocyte CLint (in vitro [1]) of 3 µL/min/1e6 cells, a microsomal CLint (in vitro [2]; liver microsomes) of 18 µL/min/mg and a logD (physchem) of 2.5.

`O=C(NC[C@@H](O)CN1CCC(Oc2ccc(Cl)c(Cl)c2)CC1)c1c[nH]c(=O)c2c(F)cccc12` showed a hepatocyte CLint (in vitro [1]) of less than 3 µL/min/1e6 cells, a microsomal CLint (in vitro [2]; liver microsomes) of 6 µL/min/mg and a logD (physchem) of 3.2.

Work on `Cc1cc(Cl)ccc1OC1CCN(C[C@H](O)CNC(=O)c2c[nH]c(=O)c3c(F)cccc23)CC1` yielded a hepatocyte CLint (in vitro [1]) of 7 µL/min/1e6 cells, a microsomal CLint (in vitro [2]; liver microsomes) of 9 µL/min/mg and a logD (physchem) of 3.

Work on `O=C(NC[C@@H](O)CN1CCC(Oc2ccc(Cl)c(Cl)c2)CC1)c1c[nH]nc1C(F)(F)F` yielded a bioavailability [4] of 36%, a clearance (in vivo [5]) of 22 mL/min/kg and a hepatocyte CLint (in vitro [1]) of 3 µL/min/1e6 cells. It also gave a microsomal CLint (in vitro [2]; liver microsomes) of less than 3 µL/min/mg and a half-life (in vivo [6]) of 6 h.

Work on `Cc1cc(Cl)ccc1OC1CCN(C[C@H](O)CNC(=O)c2c[nH]nc2C(F)(F)F)CC1` yielded a hepatocyte CLint (in vitro [1]) of 5 µL/min/1e6 cells and a microsomal CLint (in vitro [2]; microsomes) of less than 3 µL/min/mg.

With `Cc1c(Cl)ccc(OC2CCN(C[C@H](O)CNC(=O)c3c[nH]nc3C(F)(F)F)CC2)c1Cl` the hepatocyte CLint (in vitro [1]) was 6 µL/min/1e6 cells and the microsomal CLint (in vitro [2]; liver microsomes) was less than 3 µL/min/mg.

Work on `O=C(NC[C@@H](O)CN1CCC(Oc2ccc(Cl)c(Cl)c2)CC1)c1c[nH]nc1C1CC1` yielded a hepatocyte CLint (in vitro [1]) of less than 3 µL/min/1e6 cells and a microsomal CLint (in vitro [2]; liver microsomes) of 9 µL/min/mg.

For `O=C(NC[C@@H](O)CN1CCC(Oc2ccc(Cl)c(Cl)c2)CC1)c1c[nH]c(=O)cc1C(F)(F)F`, the bioavailability [4] was less than 10%, the hepatocyte CLint (in vitro [1]) was 4 µL/min/1e6 cells and the microsomal CLint (in vitro [2]; liver microsomes) was less than 3 µL/min/mg. It also gave a bioavailability [7] of 63%.

`Cc1cc(Cl)ccc1OC1CCN(C[C@H](O)CNC(=O)c2c[nH]c(=O)cc2C(F)(F)F)CC1` showed a hepatocyte CLint (in vitro [1]) of less than 3 µL/min/1e6 cells and a microsomal CLint (in vitro [2]; liver microsomes) of 3 µL/min/mg.

In the case of `Cc1c(Cl)ccc(OC2CCN(C[C@H](O)CNC(=O)c3c[nH]c(=O)cc3C(F)(F)F)CC2)c1Cl`, the hepatocyte CLint (in vitro [1]) is reported as 3 µL/min/1e6 cells and the microsomal CLint (in vitro [2]; liver microsomes) is reported as 6 µL/min/mg.

Compound `Cn1cc(C(=O)NC[C@@H](O)CN2CCC(Oc3ccc(Cl)c(Cl)c3)CC2)c(C(F)(F)F)cc1=O` has a bioavailability [4] of 53%, a clearance (in vivo [8]) of 8 mL/min/kg and a clearance (in vivo [5]) of 9 mL/min/kg. It also gave a hepatocyte CLint (in vitro [1]) of less than 3 µL/min/1e6 cells, a microsomal CLint (in vitro [2]; microsomes) of 5 µL/min/mg and a half-life (in vivo [6]) of 9.7 h. For the same compound, the half-life (in vivo [9]) was 10.8 h and the bioavailability [7] was 81%.

In the case of `O=C(NC[C@@H](O)CN1CCC(Oc2ccc(Cl)c(Cl)c2)CC1)c1c[nH]c(=O)c2ccccc12`, the bioavailability [4] is reported as 11% and the bioavailability [7] is reported as 40%.

Work on `NC(=O)c1c(OC2CCN(C[C@H](O)CNC(=O)c3c[nH]c(=O)c4ccccc34)CC2)ccc(Cl)c1Cl` yielded a CL (Rattus norvegicus) of 0.0086 mL/min/kg, a bioavailability [4] of less than 5% and a hepatocyte CLint (in vitro [1]) of 2 µL/min/1e6 cells. It also gave a microsomal CLint (in vitro [2]; liver microsomes) of 18 µL/min/mg and a logD (physchem) of 1.5.

Work on `N#Cc1ccc(OC2CCN(C[C@H](O)CNC(=O)c3c[nH]c(=O)c4ccccc34)CC2)cc1` yielded a hepatocyte CLint (in vitro [1]) of 6 µL/min/1e6 cells and a microsomal CLint (in vitro [2]; liver microsomes) of 18 µL/min/mg.

In the case of `N#Cc1ccc(OC2CCN(C[C@H](O)CNC(=O)c3c[nH]c(=O)c4ccccc34)CC2)cc1Cl`, the hepatocyte CLint (in vitro [1]) is reported as 10 µL/min/1e6 cells, the microsomal CLint (in vitro [2]; liver microsomes) is reported as 22 µL/min/mg and the logD (physchem) is reported as 2.6.

Work on `CS(=O)(=O)c1ccc2c(C(=O)NC[C@@H](O)CN3CCC(Oc4ccc(C#N)c(Cl)c4)CC3)c[nH]c(=O)c2c1` yielded a logD (physchem) of 1.4.

`CS(=O)(=O)c1ccc2c(C(=O)NC[C@@H](O)CN3CCC(Oc4ccc(Cl)c(Cl)c4)CC3)c[nH]c(=O)c2c1` showed a hepatocyte CLint (in vitro [1]) of 3 µL/min/1e6 cells.

`Cc1c(Cl)ccc(OC2CCN(C[C@H](O)CNC(=O)c3c[nH]c(=O)c4cc(S(C)(=O)=O)ccc34)CC2)c1Cl` showed a hepatocyte CLint (in vitro [1]) of 12 µL/min/1e6 cells, a microsomal CLint (in vitro [2]; liver microsomes) of 13 µL/min/mg and a logD (physchem) of 2.8.

Source: ChEMBL document CHEMBL2203219, “Discovery and evolution of phenoxypiperidine hydroxyamide dual CCR3/H₁ antagonists. Part II: optimising in vivo clearance” (Bioorg Med Chem Lett, 2012)
